Measured values taken from publication PMC9794833, “Ligand recognition and activation of neuromedin U receptor 2” (Nature Communications, 2022).
Values joined by “and” are separate entries in the source; they are usually repeats but may differ in a detail not shown here. Identical values can stand only once. Like-named read-outs stand apart in the source and are kept apart here. Where no end group is shown, it is not given here.

What was measured:
Format in all cases: cell-based
[1] = molecular target: T1, NMU2 H43E (Homo sapiens, UniProt Q9GZQ4, H43E); assay: TRUPATH assay, NMU2 mutant H43E; conditions: H43E
T1 construct: HA signal peptide (N); expressed in transfected cells; host or cells: HEK 293F
Procedure: (§1) The plasmids of Gαi1, Gβ3, and Gγ9 used for the TRUPATH assay were purchased from Addgene (TRUPATH Kit, #1000000163). NMU2 constructs of WT and mutants were constructed into a PTT5 vector (Invitrogen) with an N-terminal HA signal peptide followed by a Flag tag. HEK 293F cells were transiently transfected with WT or mutants of NMU2, Gαi1, Gβ3, and Gγ9 at an […] ratio of 4:1:1:1 with a total of 3500 ng plasmid DNA using a transfection reagent (PEI MAX 2000, Polysciences) and cultivated at 37 °C with 5 % CO2. Cells were collected after 48-h transfection. The expression level of the receptor was measured by incubating 10 μl cells with 15 μl TBS buffer supplemented with 4% bovine serum albumin, 20% (v/v) viability staining solution7-AAD (Invitrogen, Cat#00-6993-50), and ANTI-FLAG M2-FITC antibody (Sigma, F4049; 1:100 diluted by TBS) at 4 °C for 20 min. After incubation, 175 μl TBS buffer was added, and the fluorescence signal on the cell surface was detected by an FCM (flow cytometry) reader (Millipore). The cells were diluted with 1× HBSS (Hank’s balanced salt solution) balanced buffer supplemented with 25 mM HEPES, pH 7.4, and seeded onto the 96-well opaque cell culture plates (Beyotime) at a density of 18,000 cells per well by 60 μl. Freshly prepared 50 μM coelenterazine 400a (Nanolight Technologies) was added into the well by 10 μl. After a 5 min equilibration time in the darkness, plates were then read in a Synerg^TM H1 microplate reader (BioTek) with excitation at 395 nm and emission at 410 and 515 nm by serially three times. Then, 30 μl of 3.3× agonists were added into the wells with a gradient final concentration from 10^−4–10^−13 M. Plates were read immediately again by serially five times. Data were processed and analyzed following the method in the literature by using GraphPad Prism 8.0.

[2] = molecular target: T2, NMU2 E105A (Homo sapiens, UniProt Q9GZQ4, E105A); assay: TRUPATH assay, NMU2 mutant E105A
T2 construct: HA signal peptide (N); expressed in transfected cells; host or cells: HEK 293F
Procedure: as §1

[3] = molecular target: T3, NMU2 F126A (Homo sapiens, UniProt Q9GZQ4, F126A); assay: TRUPATH assay, NMU2 mutant F126A
T3 construct: HA signal peptide (N); expressed in transfected cells; host or cells: HEK 293F
Procedure: as §1

[4] = molecular target: T4, NMU2 E127A (Homo sapiens, UniProt Q9GZQ4, E127A); assay: TRUPATH assay, NMU2 mutant E127A
T4 construct: HA signal peptide (N); expressed in transfected cells; host or cells: HEK 293F
Procedure: as §1, with “The cells were diluted with 1× HBSS (Hank’s balanced salt solution) balanced buffer supplemented with 25 mM HEPES, pH 7.4, and seeded onto the 96-well opaque cell culture plates (Beyotime) at a density of 18,000 cells per well by 60 μl. Freshly prepared 50 μM coelenterazine 400a (Nanolight Technologies) was added into the well by 10 μl.” left out, “Data were processed and analyzed following the method in the literature by using GraphPad Prism 8.0.” left out

[5] = molecular target: T5, NMU2 F291A (Homo sapiens, UniProt Q9GZQ4, F291A); assay: TRUPATH assay, NMU2 mutant F291A
T5 construct: HA signal peptide (N); expressed in transfected cells; host or cells: HEK 293F
Procedure: as §1

[6] = molecular target: T6, NMU2 A302H (Homo sapiens, UniProt Q9GZQ4, A302H); assay: TRUPATH assay, NMU2 mutant A302H
T6 construct: HA signal peptide (N); expressed in transfected cells; host or cells: HEK 293F
Procedure: as §1

[7] = molecular target: T7, NMU2 F316A (Homo sapiens, UniProt Q9GZQ4, F316A); assay: TRUPATH assay, NMU2 mutant F316A
T7 construct: HA signal peptide (N); expressed in transfected cells; host or cells: HEK 293F
Procedure: as §1

[8] = molecular target: T8, NMU2 (Homo sapiens, UniProt Q9GZQ4); assay: IP accumulation assay (IP-One Gq kit), WT NMU2; conditions: IP accumulation
T8 construct: HA signal peptide (N); expressed in transfected cells; host or cells: HEK 293F
Procedure: (§2) NMU2 constructs of WT and mutants were constructed into PTT5 vector (Invitrogen), as mentioned above. HEK 293F cells were transiently transfected with WT or mutants with total of 2000 ng plasmid DNA using transfection reagent (PEI MAX 2000, Polysciences) and cultivated at 37 °C with 5% CO2. Cells were collected after 48-h transfection. IP accumulation was tested by IP-One Gq assay kit (Cisbio Bioassays, 62IPAPEJ) following the instruction manual. In general, cells were resuspended with 1× HBSS buffer containing 20 mM LiCl (stimulation buffer) and seeded into the white 384-well microplates (Proxi Plate^TM-384 Plus, PerkinElmer) with a density of 20,000 per well. Cells were preincubated with 10^−5 M R-PSOP (provided by Boehringer Ingelheim company, Germany) and gradient concentration from 10^−4 to 10^−11 M of NMU-25 or gradient concentration 10^−4 to 10^−11 M of NMU-25 alone in stimulation buffer at 37 °C for 90 min. The cryptate-labeled anti-IP1 monoclonal antibody and d2-labeled IP1 were diluted with lysis & detection buffer (1:20) and added to each well by 3 μl, respectively. The plates were incubated at room temperature for 60 minutes and then read in a Synerg^TM H1 microplate reader (BioTek) with excitation at 330 nm and emission at 620 and 665 nm. The IP1 production was calculated by a standard dose–response curve and analyzed by GraphPad Prism 8.0.

[9] = molecular target: T9, NMU2 E102A (Homo sapiens, UniProt Q9GZQ4, E102A); assay: IP accumulation assay, NMU2 mutant E102A; conditions: IP accumulation
T9 construct: HA signal peptide (N); expressed in transfected cells; host or cells: HEK 293F
Procedure: as §2

[10] = molecular target: T10, NMU2 F131L (Homo sapiens, UniProt Q9GZQ4, F131L); assay: IP accumulation assay, NMU2 mutant F131L; conditions: IP accumulation
T10 construct: HA signal peptide (N); expressed in transfected cells; host or cells: HEK 293F, transient transfection, PTT5 vector
Procedure: as §2

[11] = read-out: pEC50 mean±SEM (converted)
[12] = read-out: pEC50±SEM, NmU-25 alone (converted)

T2 sequence (Q9GZQ4 whole entry E105A): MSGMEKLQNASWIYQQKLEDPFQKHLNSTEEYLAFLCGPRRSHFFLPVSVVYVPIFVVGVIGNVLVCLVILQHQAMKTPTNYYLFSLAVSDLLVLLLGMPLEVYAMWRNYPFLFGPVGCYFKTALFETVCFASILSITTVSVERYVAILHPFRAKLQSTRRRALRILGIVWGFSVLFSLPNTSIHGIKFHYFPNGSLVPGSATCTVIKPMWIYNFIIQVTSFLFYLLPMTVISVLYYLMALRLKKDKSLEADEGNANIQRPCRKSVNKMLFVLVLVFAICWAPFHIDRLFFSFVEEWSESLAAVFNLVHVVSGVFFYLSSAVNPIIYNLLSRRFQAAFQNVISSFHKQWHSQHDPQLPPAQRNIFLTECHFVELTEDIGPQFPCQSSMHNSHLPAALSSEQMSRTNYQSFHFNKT
T7 sequence (Q9GZQ4 whole entry F316A): as the sequence (Q9GZQ4 whole entry E105A) above, with A105E, F316A counted along it
T3 sequence (Q9GZQ4 whole entry F126A): as the sequence (Q9GZQ4 whole entry E105A) above, with A105E, F126A counted along it
T1 sequence (Q9GZQ4 whole entry H43E): as the sequence (Q9GZQ4 whole entry E105A) above, with H43E, A105E counted along it
T4 sequence (Q9GZQ4 whole entry E127A): as the sequence (Q9GZQ4 whole entry E105A) above, with A105E, E127A counted along it
T5 sequence (Q9GZQ4 whole entry F291A): as the sequence (Q9GZQ4 whole entry E105A) above, with A105E, F291A counted along it
T6 sequence (Q9GZQ4 whole entry A302H): as the sequence (Q9GZQ4 whole entry E105A) above, with A105E, A302H counted along it
T8 sequence (Q9GZQ4 whole entry): as the sequence (Q9GZQ4 whole entry E105A) above, with A105E counted along it
T9 sequence (Q9GZQ4 whole entry E102A): as the sequence (Q9GZQ4 whole entry E105A) above, with E102A, A105E counted along it
T10 sequence (Q9GZQ4 whole entry F131L): as the sequence (Q9GZQ4 whole entry E105A) above, with A105E, F131L counted along it

FRVDEEFQSPFASQSRGYFLFRPRN-NH2 [NmU-25]
EC50 ratio EC50(mutant)/EC50(WT) [1]: 11 | Span (window between Emax and minimal agonist response) [1]: 135±8 % of WT | G protein activation (TRUPATH), dose-response point ([1]; Log [agonist] M -4): 115.78 and 106.024 and 146.553 and 103.896 | G protein activation (TRUPATH), dose-response point ([1]; Log [agonist] M -6): 81.3432 and 53.8154 and 89.1078 and 81.5652 | ΔpEC50 (from WT) ([1]; individual experiments): -0.8963 and -0.6313 and -0.3476 and -0.5879 | EC50 ([1]; read-out: EC50): 360 nM | EC50 [1, 11]: 363 nM | Span (window between Emax and minimal agonist response) ([2]; E105A): 65±13 % of WT | Emax ([2]; E105A vs WT, TRUPATH, read-out: decrease of Emax): 50% | G protein activation (TRUPATH), dose-response point ([2]; E105A, Log [agonist] M -5): 55.6494 and 84.0025 and 53.5618 and 51.5031 | EC50 ([2]; E105A, earlier manuscript version quoted in peer review file, read-out: EC50): 1850 nM | reduction of agonist potency ([2]; E105A, earlier manuscript version, peer review file): about 50 fold | ΔpEC50 (from WT) ([2]; E105A, individual experiments): -1.22 and -1.57 and -1.279 and -1.924 | EC50 ([2]; E105A, read-out: EC50): 2480 nM | EC50 ([2]; E105A, read-out: pEC50 mean±SEM (converted)): 2510 nM | EC50 ratio EC50(mutant)/EC50(WT) [3]: 18 | Span (window between Emax and minimal agonist response) [3]: 27±10 % of WT | G protein activation (TRUPATH), dose-response point ([3]; Log [agonist] M -4): 26.6728 and 20.7775 | ΔpEC50 (from WT) ([3]; individual experiments): -2.148 and -1.125 and -1.6853 | EC50 ([3]; read-out: EC50): 625 nM | EC50 [3, 11]: 631 nM | G protein activation (TRUPATH), dose-response point ([4]; Log [agonist] M -4): 45.81 and 24.8732 | potency (in words) ([4]; TRUPATH): complete loss of potency | EC50 ratio EC50(mutant)/EC50(WT) [5]: 22 | Span (window between Emax and minimal agonist response) [5]: 126±11 % of WT | G protein activation (TRUPATH), dose-response point ([5]; Log [agonist] M -4): 101.173 and 139.066 | G protein activation (TRUPATH), dose-response point ([5]; Log [agonist] M -5): 80.701 and 107.283 and 106.417 | span ([5]; compared with wild-type, peer review file): 127% | ΔpEC50 (from WT) ([5]; individual experiments): -0.7238 and -1.311 and -0.9879 | EC50 ([5]; read-out: EC50): 737 nM | EC50 [5, 11]: 741 nM | EC50 ratio EC50(mutant)/EC50(WT) [6]: 5 | Span (window between Emax and minimal agonist response) [6]: 97±11 % of WT | G protein activation (TRUPATH), dose-response point ([6]; Log [agonist] M -4): 97.2233 and 94.5294 | G protein activation (TRUPATH), dose-response point ([6]; Log [agonist] M -6): 58.8982 and 69.5076 and 54.0633 | ΔpEC50 (from WT) ([6]; individual experiments): -0.7587 and -0.754 and -0.956 | EC50 ([6]; read-out: EC50): 162 nM | EC50 [6, 11]: 162 nM | EC50 ratio EC50(mutant)/EC50(WT) [7]: 39 | G protein activation (TRUPATH), dose-response point ([7]; Log [agonist] M -4): 89.6236 and 94.3509 and 81.0469 and 109.176 | G protein activation (TRUPATH), dose-response point ([7]; Log [agonist] M -5): 58.7715 and 110.343 and 86.8329 and 108.262 | ΔpEC50 (from WT) ([7]; individual experiments): -1.816 and -2.03 and -0.9173 and -1.079 | EC50 ([7]; read-out: EC50): 1340 nM | EC50 [7, 11]: 1350 nM | EC50 ([8]; read-out: EC50, NmU-25 alone): 17 nM | EC50 [8, 12]: 16.6 nM | EC50 ([9]; read-out: EC50, NmU-25 alone): 1700 nM | EC50 [9, 12]: 1700 nM | EC50 ([10]; read-out: EC50, NmU-25 alone): 11 nM | EC50 [10, 12]: 10.7 nM
